These results are taken from ChEMBL document CHEMBL1156375, “Isolation and structure determination of novamethymycin, a new bioactive metabolite of the methymycin biosynthetic pathway in Streptomyces venezuelae” (2001).

The structures appear in SMILES notation.

This experiment relates to Bacillus subtilis. The experiment in a line: Antibacterial activity against Bacillus subtilis ATCC 6633 at 100 ug/disk after 10 hrs by disk diffusion assay. In kind it is functional. As to conditions: ATCC 6633, 10 h, read-out: DIZ.

Consider `CC[C@H]1OC(=O)[C@H](C)[C@@H](O[C@@H]2O[C@H](C)C[C@H](N(C)C)[C@H]2O)[C@@H](C)C[C@@H](C)C(=O)/C=C/[C@H]1C`, for which the zone of inhibition at 100 µg/disc stood at 16 mm.

As to `CC[C@H]1OC(=O)[C@H](C)[C@@H](O[C@@H]2O[C@H](C)C[C@H](N(C)C)[C@H]2O)[C@@H](C)C[C@@H](C)C(=O)/C=C/[C@]1(C)O` [METHYMYCIN], the zone of inhibition at 100 µg/disc is 18 mm.

Regarding `C[C@@H]1C[C@H](N(C)C)[C@@H](O)[C@H](O[C@H]2[C@@H](C)C[C@@H](C)C(=O)/C=C/[C@@H](C)[C@@H]([C@@H](C)O)OC(=O)[C@@H]2C)O1` [NEOMETHYMYCIN], the zone of inhibition at 100 µg/disc was 20 mm.

With `C[C@@H]1C[C@H](N(C)C)[C@@H](O)[C@H](O[C@H]2[C@@H](C)C[C@@H](C)C(=O)/C=C/[C@](C)(O)[C@@H]([C@@H](C)O)OC(=O)[C@@H]2C)O1` [NOVAMETHYMYCIN], the zone of inhibition at 100 µg/disc was 18 mm.
